36 compounds from patent publication US20090286827A1, “NOVEL BI-ARYL AMINES” (priority 2006, published 2009) can be followed below.

T1 sequence (P41594 21-1180 isoform P41594-2 limits assumed): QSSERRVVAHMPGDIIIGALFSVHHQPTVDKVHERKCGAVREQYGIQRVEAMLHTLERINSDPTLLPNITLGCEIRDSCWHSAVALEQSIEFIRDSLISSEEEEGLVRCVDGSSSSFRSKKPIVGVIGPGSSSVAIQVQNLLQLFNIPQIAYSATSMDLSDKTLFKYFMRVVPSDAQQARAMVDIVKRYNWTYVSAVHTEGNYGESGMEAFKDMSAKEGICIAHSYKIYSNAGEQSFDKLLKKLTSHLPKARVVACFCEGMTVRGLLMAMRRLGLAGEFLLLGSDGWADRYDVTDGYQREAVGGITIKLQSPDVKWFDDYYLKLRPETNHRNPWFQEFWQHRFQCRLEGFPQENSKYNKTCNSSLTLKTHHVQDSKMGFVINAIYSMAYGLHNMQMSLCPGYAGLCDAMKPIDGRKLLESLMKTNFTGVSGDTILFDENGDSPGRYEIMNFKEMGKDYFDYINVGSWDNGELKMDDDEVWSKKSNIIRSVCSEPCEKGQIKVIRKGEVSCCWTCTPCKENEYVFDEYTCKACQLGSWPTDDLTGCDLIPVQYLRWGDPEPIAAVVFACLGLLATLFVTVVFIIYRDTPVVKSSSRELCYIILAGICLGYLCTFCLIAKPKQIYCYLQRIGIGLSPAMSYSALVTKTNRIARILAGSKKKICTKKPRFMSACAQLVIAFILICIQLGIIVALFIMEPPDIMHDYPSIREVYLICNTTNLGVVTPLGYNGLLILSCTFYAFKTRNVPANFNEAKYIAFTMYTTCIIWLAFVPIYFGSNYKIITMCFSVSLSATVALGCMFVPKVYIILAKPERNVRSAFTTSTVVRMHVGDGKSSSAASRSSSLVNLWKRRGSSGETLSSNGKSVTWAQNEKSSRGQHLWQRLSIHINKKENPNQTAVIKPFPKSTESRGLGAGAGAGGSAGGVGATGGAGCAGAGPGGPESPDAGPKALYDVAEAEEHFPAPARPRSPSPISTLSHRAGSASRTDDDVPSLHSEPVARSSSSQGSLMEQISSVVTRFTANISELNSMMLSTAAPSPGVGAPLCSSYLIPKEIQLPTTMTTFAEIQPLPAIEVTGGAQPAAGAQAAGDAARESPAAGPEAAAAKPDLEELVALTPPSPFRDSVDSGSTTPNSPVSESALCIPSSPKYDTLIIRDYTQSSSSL

One test addresses T1, mGluR5 (Homo sapiens, UniProt P41594).
T1 construct: expressed in transfected cells
Nature of the test: inhibition of the glutamate induced elevation of intracellular Ca2+-concentration. The following applies: inhibition of glutamate induced elevation of intracellular Ca2+ at a concentration of 10 μM. Format: cell-based. From the text: This can be determined in vitro for example at recombinant human metabotropic glutamate receptors, especially PLC-coupled subtypes thereof such as mGluR5, using different procedures like, for example, measurement of the inhibition of the agonist induced elevation of intracellular Ca^2+ concentration in accordance with L. P. Daggett et al., Neuropharm. Vol. 34, pages 871-886 (1995), P. J. Flor et al., J. Neurochem. Vol. 67, pages 58-63 (1996) or by determination to what extent the agonist induced elevation of the inositol phosphate turnover is inhibited as described by T. Knoepfel et al., Eur. J. Pharmacol. Vol. 288, pages 389-392 (1995), L. P. Daggett et al., Neuropharm. Vol. 34, pages 871-886 (1995) and references cited therein. Isolation and expression of human mGluR subtypes are described in U.S. Pat. No. 5,521,297. Selected agents of the invention show IC50 values for the inhibition of the agonist (e.g. glutamate or quisqualate) induced elevation of intracellular Ca2+ concentration or the agonist (e.g. glutamate or quisqualate) induced inositol phosphate turnover, measured in recombinant cells expressing hmGluR5a of about 1 nM to about 50 μM.
Activity of compounds of the present invention was examined by measurement of the inhibition of the glutamate induced elevation of intracellular Ca^2+-concentration following similar methods than those described in L. P. Daggett et al., Neuropharm. Vol. 34, pages 871-886 (1995), P. J. Flor et al., J. Neurochem. Vol. 67, pages 58-63 (1996).
The table below represents percentages of inhibition of the glutamate induced elevation of intracellular Ca^2+-concentration at a concentration of 10 μM.
As to `Clc1ccc(Nc2ccc(-c3nccn3C3CCCCC3)cn2)cc1` [Compound 7, (4-Chloro-phenyl)-[5-(1-yclohexyl-1H-imidazol-2-yl)-pyridin-2-yl]-amine], the “mGluR5 Activity inh. at 10 μM [%]” value is listed as 27%.

The same test, now with this note: inhibition of glutamate induced elevation of intracellular Ca2+ at a concentration of 10 μM; read-out: mGluR5 Activity inh. at 10 μM [%].
Regarding `CCn1ccnc1-c1ccc(Nc2ccc(Cl)cc2)nc1` [Compound 1, (4-Chloro-phenyl)-[5-(1-ethyl-1H-imidazol-2-yl)-pyridin-2-yl]-amine], the inhibition at 10 µM was 94%.

In the case of `Cn1ccnc1-c1ccc(Nc2ccc(Cl)cc2)nc1` [Compound 2, (4-Chloro-phenyl)-[5-(1-methyl-1H-imidazol-2-yl)-pyridin-2-yl]-amine], the inhibition at 10 µM came to 81%.

Regarding `CCCn1ccnc1-c1ccc(Nc2ccc(Cl)cc2)nc1` [Compound 3, (4-Chloro-phenyl)-[5-(1-propyl-1H-imidazol-2-yl)-pyridin-2-yl]-amine], the inhibition at 10 µM was 96%.

Turning to `CC(C)n1ccnc1-c1ccc(Nc2ccc(Cl)cc2)nc1` [Compound 4, (4-Chloro-phenyl)-[5-(1-isopropyl-1H-imidazol-2-yl)-pyridin-2-yl]-amine], the inhibition at 10 µM is 93%.

Take `CC(C)Cn1ccnc1-c1ccc(Nc2ccc(Cl)cc2)nc1` [Compound 5, (4-Chloro-phenyl)-[5-(1-isobutyl-1H-imidazol-2-yl)-pyridin-2-yl]-amine]: the inhibition at 10 µM amounted to 95%.

As to `Clc1ccc(Nc2ccc(-c3nccn3CC3CC3)cn2)cc1` [Compound 6, (4-Chloro-phenyl)-[5-(1-cyclopropylmethyl-1H-imidazol-2-yl)-pyridin-2-yl]-amine], the inhibition at 10 µM came out at 96%.

Take `Clc1ccc(Nc2ccc(-c3nccn3Cc3ccccc3)cn2)cc1` [Compound 8, [5-(1-Benzyl-1H-imidazol-2-yl)-pyridin-2-yl]-(4-chloro-phenyl)-amine]: the inhibition at 10 µM came out at 36%.

Consider `Clc1ccc(Nc2ccc(-c3nccn3-c3ccccc3)cn2)cc1` [Compound 9, (4-Chloro-phenyl)-[5-(1-phenyl-1H-imidazol-2-yl)-pyridin-2-yl]-amine], for which the inhibition at 10 µM came to 63%.

With `CC(C)n1cncc1-c1ccc(Nc2ccc(Cl)cc2)nc1` [Compound 10, (4-Chloro-phenyl)-[5-(3-isopropyl-3H-imidazol-4-yl)-pyridin-2-yl]-amine], the inhibition at 10 µM is 73%.

On to `CC(C)n1cnc(-c2ccc(Nc3ccc(Cl)cc3)nc2)c1` [Compound 11, (4-Chloro-phenyl)-[5-(1-isopropyl-1H-imidazol-4-yl)-pyridin-2-yl]-amine], for which the inhibition at 10 µM was found to be 56%.

On to `CC(C)n1cnnc1-c1ccc(Nc2ccc(Cl)cc2)nc1` [Compound 12, (4-Chloro-phenyl)-[5-(4-isopropyl-4H-[1,2,4]triazol-3-yl)-pyridin-2-yl]-amine], for which the inhibition at 10 µM was 40%.

With `Clc1ccc(Nc2ccc(-c3nnc4n3CCCC4)cn2)cc1` [Compound 13, (4-Chloro-phenyl)-[5-(5,6,7,8-tetrahydro-[1,2,4]triazolo[4,3-a]pyridin-3-yl)-pyridin-2-yl]-amine], the inhibition at 10 µM was found to be 95%.

Turning to `Clc1ccc(Nc2ccc(-c3nnc4ccccn34)cn2)cc1` [Compound 14, (4-Chloro-phenyl)-(5-[1,2,4]triazolo[4,3-a]pyridin-3-yl-pyridin-2-yl)-amine], the inhibition at 10 µM came to 28%.

In the case of `CCn1ccnc1-c1cnc(Nc2ccc(Cl)cc2)c(Cl)c1` [Compound 15, [3-Chloro-5-(1-ethyl-1H-imidazol-2-yl)-pyridin-2-yl]-(4-chloro-phenyl)-amine], the inhibition at 10 µM was 100%.

In the case of `Clc1ccc(Nc2ncc(-c3ncc4ccccn34)cc2Cl)cc1` [Compound 16, (3-Chloro-5-imidazo[1,5-a]pyridin-3-yl-pyridin-2-yl)-(4-chloro-phenyl)-amine], the inhibition at 10 µM stood at 32%.

For `Clc1ccc(Nc2ncc(-c3ncc4n3CCCC4)cc2Cl)cc1` [Compound 17, (4-Chloro-phenyl)-[3-chloro-5-(5,6,7,8-tetrahydro-imidazo[1,5-a]pyridin-3-yl)-pyridin-2-yl]-amine], the inhibition at 10 µM turned out to be 95%.

On to `CCn1ccnc1-c1cnc(Nc2ccc(C)nc2)c(Cl)c1` [Compound 18, [3-Chloro-5-(1-ethyl-1H-imidazol-2-yl)-pyridin-2-yl]-(6-methyl-pyridin-3-yl)-amine], for which the inhibition at 10 µM is 95%.

Regarding `CCCn1ccnc1-c1cnc(Nc2ccc(Cl)cc2)c(Cl)c1` [Compound 19, (4-Chloro-phenyl)-[3-chloro-5-(1-propyl-1H-imidazol-2-yl)-pyridin-2-yl]-amine], the inhibition at 10 µM turned out to be 97%.

`CCn1c(-c2cnc(Nc3ccc(Cl)cc3)c(Cl)c2)nc(C)c1C` [Compound 20, [3-Chloro-5-(1-ethyl-4,5-dimethyl-1H-imidazol-2-yl)-pyridin-2-yl]-(4-chloro-phenyl)-amine]: the inhibition at 10 µM came out at 92%.

For `Clc1ccc(Nc2ncc(-c3nnn[nH]3)cc2Cl)cc1` [Compound 21, (4-Chloro-phenyl)-[3-chloro-5-(1H-tetrazol-5-yl)-pyridin-2-yl]-amine], the inhibition at 10 µM came out at 56%.

Turning to `CCCn1nnnc1-c1cnc(Nc2ccc(Cl)cc2)c(Cl)c1` [Compound 22, (4-Chloro-phenyl)-[3-chloro-5-(1-propyl-1H-tetrazol-5-yl)-pyridin-2-yl]-amine], the inhibition at 10 µM is 49%.

On to `CC(C)Cn1nnnc1-c1cnc(Nc2ccc(Cl)cc2)c(Cl)c1` [Compound 23, [3-Chloro-5-(1-isobutyl-1H-tetrazol-5-yl)-pyridin-2-yl]-(4-chloro-phenyl)-amine], for which the inhibition at 10 µM came to 53%.

On to `Clc1ccc(Nc2ncc(-c3nnc4n3CCCC4)cc2Cl)cc1` [Compound 24, (4-Chloro-phenyl)-[3-chloro-5-(5,6,7,8-tetrahydro-[1,2,4]triazolo[4,3-a]pyridin-3-yl)-pyridin-2-yl]-amine], for which the inhibition at 10 µM came out at 89%.

Take `Clc1ccc(Nc2ncc(-c3nnc4n3CCCCC4)cc2Cl)cc1` [Compound 25, (4-Chloro-phenyl)-[3-chloro-5-(6,7,8,9-tetrahydro-5H-[1,2,4]triazolo[4,3-a]azepin-3-yl)-pyridin-2-yl]-amine]: the inhibition at 10 µM came out at 93%.

On to `Clc1ccc(Nc2ncc(-c3nnc4n3CCCCCC4)cc2Cl)cc1` [Compound 26, [3-Chloro-5-(5,6,7,8,9,10-hexahydro-[1,2,4]triazolo[4,3-a]azocin-3-yl)-pyridin-2-yl]-(4-chloro-phenyl)-amine], for which the inhibition at 10 µM stood at 98%.

Take `Clc1ccc(Nc2ncc(-c3nnc4n3CCCCCCC4)cc2Cl)cc1` [Compound 27, [3-Chloro-5-(6,7,8,9,10,11-hexahydro-5H-[1,2,4]triazolo[4,3-a]azonin-3-yl)-pyridin-2-yl]-(4-chloro-phenyl)-amine]: the inhibition at 10 µM turned out to be 100%.

With `CCn1cccc1-c1cnc(Nc2ccc(Cl)cc2)c(Cl)c1` [Compound 28, [3-Chloro-5-(1-ethyl-1H-pyrrol-2-yl)-pyridin-2-yl]-(4-chloro-phenyl)-amine], the inhibition at 10 µM was 31%.

As for `Cc1cc(-c2cnc(Nc3ccc(Cl)cc3)c(Cl)c2)n(C)n1` [Compound 29, [3-Chloro-5-(2,5-dimethyl-2H-pyrazol-3-yl)-pyridin-2-yl]-(4-chloro-phenyl)-amine], the inhibition at 10 µM is 39%.

In the case of `Cc1cn(C)c(-c2cnc(Nc3ccc(Cl)cc3)c(Cl)c2)n1` [Compound 30, [3-Chloro-5-(1,4-dimethyl-1H-imidazol-2-yl)-pyridin-2-yl]-(4-chloro-phenyl)-amine], the inhibition at 10 µM was 98%.

Turning to `Cc1cnc(-c2cnc(Nc3ccc(Cl)cc3)c(Cl)c2)n1C` [Compound 31, [3-Chloro-5-(1,5-dimethyl-1H-imidazol-2-yl)-pyridin-2-yl]-(4-chloro-phenyl)-amine], the inhibition at 10 µM is 48%.

With `CCn1cc(C)nc1-c1cnc(Nc2ccc(Cl)cc2)c(Cl)c1` [Compound 32, [3-Chloro-5-(1-ethyl-4-methyl-1H-imidazol-2-yl)-pyridin-2-yl]-(4-chloro-phenyl)-amine], the inhibition at 10 µM amounted to 95%.

Consider `CCCn1cc(C)nc1-c1cnc(Nc2ccc(Cl)cc2)c(Cl)c1` [Compound 33, [3-Chloro-5-(4-methyl-1-propyl-1H-imidazol-2-yl)-pyridin-2-yl]-(4-chloro-phenyl)-amine], for which the inhibition at 10 µM amounted to 100%.

Turning to `CCCn1cc(CC)nc1-c1cnc(Nc2ccc(Cl)cc2)c(Cl)c1` [Compound 34, [3-Chloro-5-(4-ethyl-1-propyl-1H-imidazol-2-yl)-pyridin-2-yl]-(4-chloro-phenyl)-amine], the inhibition at 10 µM is 100%.

Consider `CCCCn1cc(CC)nc1-c1cnc(Nc2ccc(Cl)cc2)c(Cl)c1` [Compound 35, [5-(1-Butyl-4-ethyl-1H-imidazol-2-yl)-3-chloro-pyridin-2-yl]-(4-chloro-phenyl)-amine], for which the inhibition at 10 µM is 100%.

Consider `CCc1cn(CC)c(-c2cnc(Nc3ccc(Cl)cc3)c(Cl)c2)n1` [Compound 36, [3-Chloro-5-(1,4-diethyl-1H-imidazol-2-yl)-pyridin-2-yl]-(4-chloro-phenyl)-amine], for which the inhibition at 10 µM was 78%.
